From patent US20180312542A1, “ENDOSOMAL ESCAPE PEPTIDES” (priority 2015, published 2018)

Tests used:
BSR.LNL.tdTomato cells [1] = test: Toxicity of aurein 1.2 variants fused to +36 GFP-Cre; type: cell-based, hamster; conditions: variant fused to +36 GFP-Cre, 250 nM
Protocol: (§1) FIGS. 4A-4B. Activity and cytotoxicity of aurein 1.2 variants fused to +36 GFP-Cre. (FIG. 4A) The percentage of tdTomato positive cells was determined by flow cytometry. (FIG. 4B) Toxicity as determined by CellTiterGlo (Promega) assay. […] Cells were treated with 250 nM protein for 4 hours in serum-free DMEM. Cells were washed and supplanted with full DMEM and incubated for 48 hours.
To identify the residues involved in enhancing non-endosomal protein delivery, an alanine scan of the 13 amino acid positions of aurein 1.2 was performed by cloning, expressing, and purifying each alanine mutant of aurein 1.2-+36 GFP-Cre. The resulting fusion proteins were assayed in BSR.LNL.tdTomato reporter cells as described above (Table 2). Seven positions were moderately to highly intolerant of alanine substitution. Six positions retained >70% of the activity of unmutated aurein 1.2-+36 GFP-Cre (FIG. 4A). […]
Uptake and delivery assays for Cre fusion proteins were performed as previously described. […] Toxicity for aurein 1.2 and citropin 1.3 validation assays was determined using CellTiterGlo assay (Promega) in 96-well plates following manufacturer protocol. Toxicity for alanine scan mutational analysis was determined with LIVE/DEAD fixable far-red dead cell stain (Life Technologies) with 635 nm laser and 670/30 nm filter.

BSR.LNL.tdTomato cells [2] = test: Cre delivery assay of expressed fusion proteins (tdTomato, flow cytometry); type: cell-based, hamster; conditions: for overall recombination efficiency versus aurein 1.2: variant fused to +36 GFP-Cre, 250 nM; for recombination signal above that of +36 GFP-Cre: 250 nM expressed fusion protein; for recombination levels higher than that of +36 GFP-Cre alone: 1 μM expressed fusion protein
Protocol: FIGS. 3A-3B. Efficacy and toxicity of recombinant expression fusions of aurein 1.2 (“E”) and citropin 1.3 (“U”). […] The percentage of tdTomato positive cells was determined by flow cytometry. Protein fusions were delivered at 125 nM, 250 nM, 500 nM, and 1 μM. (FIG. 3B) Toxicity of aurein 1.2 and citropin 1.3 as determined by CellTiterGlo (Promega) assay. Protein fusions were delivered at 125 nM, 250 nM, 500 nM, and 1 μM. […] Cells were treated with 250 nM protein for 4 hours in serum-free media. Cells were washed and supplanted with full DMEM and incubated for 48 hours. Error bars represent the standard deviation of three independent biological replicates.
as §1
Both aurein 1.2-+36 GFP-Cre and citropin 1.3-+36 GFP-Cre were cloned, expressed, and purified as fusion proteins.
To identify the residues involved in enhancing non-endosomal protein delivery, an alanine scan of the 13 amino acid positions of aurein 1.2 was performed by cloning, expressing, and purifying each alanine mutant of aurein 1.2-+36 GFP-Cre. The resulting fusion proteins were assayed in BSR.LNL.tdTomato reporter cells as described above (Table 2). […] In total, 19 mutants of aurein 1.2 were generated and tested using the Cre recombination assay.
(§2) Uptake and delivery assays for Cre fusion proteins were performed as previously described. Briefly, proteins were diluted in serum-free DMEM and incubated on the cells in 48-well plates for 4 hours at 37° C. Following incubation, the cells were washed three times with PBS+20 U/mL heparin. The cells were incubated a further 48 hours in serum-containing media prior to trypsinization and analysis by flow cytometry. All flow cytometry were carried out on a BD Fortessa flow cytometer (Becton-Dickinson) using 530/30 nm and 610/20 nm filter sets. Toxicity for aurein 1.2 and citropin 1.3 validation assays was determined using CellTiterGlo assay (Promega) in 96-well plates following manufacturer protocol. Toxicity for alanine scan mutational analysis was determined with LIVE/DEAD fixable far-red dead cell stain (Life Technologies) with 635 nm laser and 670/30 nm filter.

BSR.LNL.tdTomato cells [3] = test: Primary screen for cytosolic delivery of Cre recombinase (tdTomato, fluorescence image analysis); type: cell-based, hamster; conditions: for cells expressing tdTomato (recombined cells): 250 nM protein, 4 h serum-free media, then 48 h, sortase-conjugated peptide or no peptide; for level of recombination in primary screen: 250 nM peptide-(+36 GFP)-Cre conjugate
Protocol: FIG. 2. Primary screen for cytosolic delivery of Cre recombinase in BSR.LNL.tdTomato cells. Initial screen of 20 peptide-(+36 GFP)-Cre conjugated proteins. Cytosolic Cre delivery results in recombination and tdTomato expression. The percentage of tdTomato positive cells was determined by fluorescence image analysis. […] Cells were treated with 250 nM protein for 4 hours in serum-free DMEM. Cells were washed and supplanted with full DMEM and incubated for 48 hours. Error bars represent the standard deviation of three independent biological replicates.
The ability of each peptide-(+36 GFP)-Cre recombinase fusion when added to culture media to effect recombination was assayed in BSR.LNL.tdTomato cells, a hamster kidney cell line derived from BHK-21 (FIG. 8). Because Cre recombinase must enter the cell, escape endosomes, enter the nucleus, and catalyze recombination to generate tdTomato fluorescence, this assay reflects the availability of active, non-endosomal recombinase enzyme that reaches the nucleus. […] See, e.g., Dijkstra at al. Biochimica et Biophysica Acta (BBA)-Molecular Cell Research 1984, 804, 58.
The reporter BSR.LNL.tdTomato cells were incubated with 250 nM of each peptide-(+36 GFP)-Cre protein in serum-free media.
BSR.LNL.tdTomato cells were plated at 10,000 cells per well in black 384-well plates (Aurora Biotechnologies). Cells were treated with Cre fusion proteins diluted in serum-free DMEM 24 hours after plating and incubated for 4 hours at 37° C. Following incubation, the cells were washed three times with PBS+20 U/mL heparin. The cells were incubated a further 48 h in serum-containing media. Cells were fixed in 3% paraformaldehyde and stained with Hoescht 33342 nuclear dye. Images were acquired on an ImageXpress Micro automated microscope (Molecular Devices) using a 4× objective (binning 2, gain 2), with laser- and image-based focusing (offset −130 μm, range ±50 μm, step 25 μm). Images were exposed for 10 ms in the DAPI channel (Hoechst) and 500 ms in the dsRed channel (tdTomato). Image analysis was performed using the cell-scoring module of MetaXpress software (Molecular Devices). All nuclei were detected with a minimum width of 1 pixel, maximum width of 3 pixels, and an intensity of 200 gray levels above background. Positive cells were evaluated for uniform signal in the dsRed channel (minimum width of 5 pixels, maximum width of 30 pixels, intensity >200 gray levels above background, 10 μm minimum stained area). In total, nine images were captured and analyzed per well, and 16 wells were treated with the same fusion protein. The primary screen was completed in biological triplicate.

BSR.LNL.tdTomato cells [4] = test: ATP-dependent cell viability assay (CellTiterGlo) 48 h after treatment; type: cell-based, hamster; conditions: for viable cells: 1 μM treatment; for viability: 250 nM recombinant fusion
Protocol: FIGS. 3A-3B. Efficacy and toxicity of recombinant expression fusions of aurein 1.2 (“E”) and citropin 1.3 (“U”). (FIG. 3A) Cytosolic Cre delivery results in recombination and tdTomato expression. The percentage of tdTomato positive cells was determined by flow cytometry. Protein fusions were delivered at 125 nM, 250 nM, 500 nM, and 1 μM. (FIG. 3B) Toxicity of aurein 1.2 and citropin 1.3 as determined by CellTiterGlo (Promega) assay. Protein fusions were delivered at 125 nM, 250 nM, 500 nM, and 1 μM. […] Cells were treated with 250 nM protein for 4 hours in serum-free media. Cells were washed and supplanted with full DMEM and incubated for 48 hours. Error bars represent the standard deviation of three independent biological replicates.
Next, the toxicity of each fusion protein was evaluated at a range of concentrations (125 nM to 1 μM) using an ATP-dependent cell viability assay at 48 h after treatment. […] Applying 1 μM treatments decreased cell viability to 70% and 66%, respectively (FIG. 3B). In light of its activity and low cytotoxicity at 250 nM, the ability of aurein 1.2 to enhance cytosolic protein delivery was characterized in depth.
as §2

[5] = test system: cochlear hair cells and supporting cells of Cre reporter transgenic mice; test: In vivo protein delivery of Cre recombinase into mouse neonatal cochleas; conditions: for cochlear cells survived as compared to +36 GFP-Cre treatment: scala media
Protocol: FIGS. 6A-6C. In vivo protein delivery of Cre recombinase into mouse neonatal cochleas. 0.4 μL of 50 μM+36 GFP-Cre or aurein 1.2-+36 GFP-Cre were injected into the scala media. (FIG. 6A) Five days after injection, cochlea were harvested. Inner hair cells (IHC), outer hair cells (OHC) and supporting cells in the sensory epithelium (SE) were imaged for the presence of tdTomato, which is only expressed following Cre-mediated recombination. Hair cells were labeled with antibodies against the hair-cell marker Myo7a. (FIG. 6B) To evaluate cytotoxicity, the number of outer hair cells and inner hair cells were measured by counting DAPI-stained cells. (FIG. 6C) The percentage of tdTomato positive cells, reflecting successful delivery of functional Cre recombinase, was determined by fluorescence imaging.
To evaluate the ability of aurein 1.2 to increase the efficacy of cationic protein delivery in vivo, proteins were delivered to the inner ear of Cre reporter transgenic mice that express tdTomato upon Cre-mediated recombination. This animal model was chosen due to its confined injection volume, the presence of well-characterized cell types, and the existence of genetic deafness models that would facilitate future studies of protein delivery to treat hearing loss.
Anesthetized postnatal day 2 (P2) mice were injected with 0.4 μL of 50 μM+36 GFP-Cre or aurein 1.2-+36 GFP-Cre solutions in the scala media to access the cochlear cells. Five days after injection, the cochleas were harvested for immunolabeling of inner ear cell markers and imaging for tdTomato florescence (FIG. 6A). Both the hair cells (Myo7a+) and supporting cells (Myo7a−) were evaluated for td Tomato signal. The total number of hair cells and supporting cells (by DAPI labeling) in the sensory epithelium (SE) was used to determine the relative toxicity of aurein 1.2-+36 GFP-Cre to the baseline treatment of +36 GFP-Cre ([…]).
P1-2 Gt(ROSA)26Sor^tm14(CAG-tdTomato)Hze mice were used for aurein 1.2-+36-GFP-Cre and +36-GFP-Cre injection. The Rosa26-tdTomato mice were from the Jackson Laboratory. Animals were used under protocols approved by the Massachusetts Eye & Ear Infirmary IACUC committee. Mice were anesthetized by hypothermia on ice. Cochleostomies were performed by making an incision behind the ear to expose the cochlea. Glass micropipettes held by a micromanipulator were used to deliver the complex into the scala media, which allows access to inner ear hair cells. The total delivery volume for every injection was 0.4 μL per cochlea and the release was controlled by a micromanipulator at the speed of 69 nL/min.
5 days after injection, the mice were sacrificed and cochlea were harvested by standard protocols. See, e.g., Sage et al. Science 2005, 307, 1114. For immunohistochemistry, antibodies against hair-cell markers (Myo7a) and supporting cells (Sox2) were used following a previously described protocol. To quantify the number of tdTomato positive cells after aurein 1.2-+36-GFP-Cre and +36-GFP-Cre, we counted the total number of inner and outer hair cells in a region spanning 100 μm in the apex, middle, and base turn of the cochlea.

BSR.LNL.tdTomato cells [6] = test: Delivery efficiency of aurein 1.2 in trans with +36 GFP-Cre (Cre recombination, flow cytometry); type: cell-based, hamster; conditions: 125-500 nM +36 GFP-Cre mixed with aurein 1.2 (1-100 μM) or aurein 1.2-+36 GFP (125-500 nM)
Protocol: Determining the delivery efficiency of aurein 1.2 in trans with +36 GFP-Cre. 125 nM, 250 nM, or 500 nM+36 GFP-Cre was mixed with either aurein 1.2-+36 GFP (125 nM, 250 nM, 500 nM) or with aurein 1.2 (1 μM, 10 μM, 100 μM), then assayed for Cre-mediated recombination as measured by tdTomato signal during flow cytometry. […] The expressed fusion aurein 1.2-+36 GFP-Cre protein at 125 nM, 250 nM, or 500 nM was used as the positive control.
To test this possibility, we assayed functional Cre recombinase delivery of +36 GFP-Cre mixed with aurein 1.2, or mixed with aurein 1.2-+36 GFP fusion protein lacking Cre at various concentrations (FIG. 9).

[7] = middle, 0.4 μL of 50 μM, 5 days

## GLFDIIKKIAEAF [S12A, aurein 1.2 variant, expressed as recombinant fusion protein with +36 GFP-Cre]
BSR.LNL.tdTomato cells [1]
  toxicity versus aurein 1.2: increased toxicity
BSR.LNL.tdTomato cells [2]
  overall recombination efficiency versus aurein 1.2: potentially improved

## CCN(CC)CCCC(C)Nc1ccnc2cc(Cl)ccc12 (stereo not shown) [chloroquine, reference compound]
BSR.LNL.tdTomato cells [3]; 250 nM +36 GFP-Cre incubated with 100 μM chloroquine (positive control)
  recombined cells: 48%

## +36 GFP-Cre: superpositively charged GFP fused to Cre recombinase, SEQ ID NO: 76; no-peptide control [reference compound]
BSR.LNL.tdTomato cells [4]
  viable cells: 85%
[5]; 0.4 μL of 50 μM, 5 days
  recombination in middle or base cochlear hair cells or cochlear supporting cells: not in the middle or base of the cochlear hair cells or any cochlear supporting cells
[5]; apex, 0.4 μL of 50 μM, 5 days
  Cre-mediated recombination, inner hair cells (IHC): 4.4%
BSR.LNL.tdTomato cells [3]
  cells expressing tdTomato (recombined cells): 4.5%

## GLFDIIKKIAESF [aurein 1.2]
[5]; live mice, inner ear
  potency of Cre delivery into cochlear hair cells when fused with aurein 1.2 versus absence of the peptide: > 20 fold
BSR.LNL.tdTomato cells [6]
  effect on functional delivery of +36 GFP-Cre when added in trans: did not affect
BSR.LNL.tdTomato cells [3]
  level of recombination in primary screen: highest level of recombination

## GLFDIIKRIAESF [K8R, aurein 1.2 variant, expressed as recombinant fusion protein with +36 GFP-Cre]
BSR.LNL.tdTomato cells [1]
  toxicity versus aurein 1.2: increased toxicity
BSR.LNL.tdTomato cells [2]
  overall recombination efficiency versus aurein 1.2: potentially improved

## aurein 1.2-+36 GFP-Cre: fusion protein of aurein 1.2, +36 GFP and Cre recombinase, SEQ ID NO: 77
BSR.LNL.tdTomato cells [4]
  viability: 87%
  viable cells: 70%
[5]; apex, 0.4 μL of 50 μM, 5 days
  Cre-mediated recombination, inner hair cells (IHC): 100%
  Cre-mediated recombination, outer hair cells (OHC): 96%
  cochlear cells survived as compared to +36 GFP-Cre treatment: 96%
[5]; base, 0.4 μL of 50 μM, 5 days
  Cre-mediated recombination, inner hair cells (IHC): 70%
  Cre-mediated recombination, outer hair cells (OHC): 69%
  cochlear cells survived as compared to +36 GFP-Cre treatment: 66%
[5]; [7]
  Cre-mediated recombination, inner hair cells (IHC): 94%
  Cre-mediated recombination, outer hair cells (OHC): 91%
  cochlear cells survived as compared to +36 GFP-Cre treatment: 92%
BSR.LNL.tdTomato cells [3]
  cells expressing tdTomato (recombined cells): 40%
BSR.LNL.tdTomato cells [2]
  recombination signal above that of +36 GFP-Cre: 10.4 fold
  recombination levels higher than that of +36 GFP-Cre alone: 3.8 fold

## GLFDIIKKVASVIGGL [citropin 1.3]
BSR.LNL.tdTomato cells [3]
  level of recombination in primary screen: moderate level of recombination

## citropin 1.3-+36 GFP-Cre: fusion protein of citropin 1.3, +36 GFP and Cre recombinase, SEQ ID NO: 78
BSR.LNL.tdTomato cells [4]
  viability: 84%
  viable cells: 66%
BSR.LNL.tdTomato cells [2]
  recombination signal above that of +36 GFP-Cre: did not induce any enhanced Cre delivery
  recombination levels higher than that of +36 GFP-Cre alone: 3.0 fold
